According to US8613931B2, “Compounds for treating beta-amyloidoses” (Affiris AG, priority 2008, dated 2013):

How the values were obtained:
[1] = test system: monoclonal antibody MV-001; assay: In vitro binding assay (ELISA), parental antibody MV-001; design: species or system C57/Bl6 mice; conditions: peptide-BSA on ELISA plate; OD halfmax, dilution factor 1:X of parental AB MV-001
Experimental: 1. In vitro binding assay (ELISA)
Peptides derived from Phage Display as well as variants thereof were coupled to BSA and bound to ELISA plates (1 μM; as indicated in the respective figures) and subsequently incubated with the monoclonal antibody that was used for the screening procedure to analyse binding capacity of identified peptides.

[2] = test system: full length and/or truncated and modified forms of Aβ; assay: In vivo characterisation of mimotopes: detection of Aβ/truncated/modified forms; design: species or system C57/bl6 mice; key: +: All peptides listed in Table 4 mount specific immune reactions against full length and/or truncated and modified forms of Aβ or fragments thereof; conditions: MV-001 derived mimotopes; mimotope vaccination
Experimental: (§1) Inhibiting as well as non-inhibiting peptides were coupled to KLH and injected into mice (wildtype C57/Bl6 mice; subcutaneous injection into the flank) together with an appropriate adjuvant (aluminium hydroxide). Animals were vaccinated 3-6 times in biweekly intervals and sera were taken biweekly as well. Titers to injected peptides, as well as to an irrelevant peptide were determined with every serum. Furthermore, titers against the recombinant human Aβ protein, and against original peptides were determined respectively. In general sera were analysed by reaction against peptides coupled to Bovine Serum Albumin (BSA) and recombinant full length proteins which were immobilised on ELISA plates. Titers were determined using anti mouse IgG specific antibodies. For detailed results see FIGS. 6, 7 and 8 respectively.
(§2) Female C57/bl6 mice, 5-6 mice per group, were subcutaneously immunized with 30 μg peptide coupled to KLH. Control groups were administered original epitope-KLH conjugates respectively. As adjuvant alum was used (always 1 mg per mouse). […] The in vitro ELISA assay to determine the antibody titer was performed with sera of single mice after each vaccination in a two week interval (see FIGS. 6 and 7 respectively). The wells of the ELISA plate were coated with mimotope-BSA conjugate and an irrelevant peptide-BSA conjugate (negative control). The positive control was performed by reaction of the parental antibody with the respective mimotope-BSA conjugate. The detection was performed with anti-mouse IgG. Additionally, recombinant proteins were immobilised on ELISA plates and sera reacted accordingly. FIGS. 6 to 8 show representative examples for assays used to characterise mimotopes in vivo.

[3] = test system: monoclonal antibody MV-001; assay: In vitro inhibition assay (ELISA), MV-001 binding to original epitope; design: species or system C57/Bl6 mice; conditions: OD at 10 μg peptide compared to original peptide
Experimental: (§3) 2. In vitro inhibition assay (ELISA)
(§4) Different amounts of peptides (concentrations ranging from 10 μg to 0.08 μg; serial dilutions), derived from Phage Display were incubated with the monoclonal antibody that was used for the screening procedure. Peptides diminishing subsequent binding of the antibody to the original epitope coated on ELISA plates were considered as inhibiting in this assay.

Tg2576 AD mouse model = assay: Area occupied by amyloid plaques in Tg2576 mice after mimotope vaccination; format: in vivo; conditions: Tg2576, 6 s.c. injections at monthly intervals, peptide-KLH conjugate with ALUM; for average area occupied by amyloid plaques: mAb 3A5 staining, control group 0.35%; for reduction of area occupied by amyloid plaques following mimotope treatment: versus control group
[4] = test system: monoclonal antibody MV-004; assay: In vitro inhibition assay (ELISA), MV-004 binding to original epitope; design: species or system BalbC mice; conditions: OD at 10 μg peptide compared to original peptide
Experimental: as §3, §4

[5] = test system: monoclonal antibody MV-003; assay: In vitro inhibition assay (ELISA), MV-003 binding to original epitope; design: species or system BalbC mice; conditions: OD at 10 μg peptide compared to original peptide
Experimental: as §3, §4

[6] = test system: full length and/or truncated and modified forms of Aβ; assay: In vivo characterisation of mimotopes: detection of Aβ/truncated/modified forms; design: species or system C57/bl6 mice; key: +: All peptides listed in Table 5 mount specific immune reactions against full length and/or truncated and modified forms of Aβ or fragments thereof; conditions: MV-003 derived mimotopes; mimotope vaccination
Experimental: as §1, §2

[7] = biological target: monoclonal antibody MV-004; assay: inhibition ELISA; competitor: coated original epitope p4372; conditions: for Inhibition Capacity: scale: code
[8] = biological target: monoclonal antibody MV-004; assay: ELISA, peptide-BSA coated, MV-004; conditions: for Binding Capacity: scale: code
[9] = biological target: monoclonal antibody MV-003; assay: inhibition ELISA; competitor: coated original epitope p4373
[10] = biological target: monoclonal antibody MV-003; assay: ELISA, peptide-BSA coated, MV-003; conditions: for Binding Capacity: scale: code

With TLHEFRHC [p4715] the “Binding Capacity” value [1] was 3 (strong binding :>20000), the “Detection of Aβ/truncated/modified forms” value [2] was “+” and the “Inhibition Capacity” value [3] was 2 (strong inhibition (as original epitope; OD of 10 μg peptide below 2 times of original peptide)). For the same molecule, the “average area occupied by amyloid plaques” value (Tg2576 AD mouse model) was 0.22% and the “reduction of area occupied by amyloid plaques following mimotope treatment” value (shortened to “reduction of area occupied”) (Tg2576 AD mouse model) was 36%.

For EVWHRGC [p4788], the “Inhibition Capacity” value [4] was 1 (Weaker than original epitope (OD of 10 μg peptide below 5 times of original peptide)).

SEFKHGC [p4381] was tested, and the “Binding Capacity” value [1] was 3 (strong binding :>20000), the “Detection of Aβ/truncated/modified forms” value [2] was “+” and the “Inhibition Capacity” value [3] was 1 (Weaker than original epitope (OD of 10 μg peptide below 3 times of original peptide)). For the same molecule, the “average area occupied by amyloid plaques” value (Tg2576 AD mouse model) was 0.11% and the “reduction of area occupied” value (Tg2576 AD mouse model) was 67%.

ERWHEKC [p4790] was tested, and the “Inhibition Capacity” value [4] was 2 (strong inhibition (as original epitope; OD of 10 μg peptide below 2 times of original peptide)).

With EVWHRLQC [p4419] the “Inhibition Capacity” value [4] was 2 (strong inhibition (as original epitope; OD of 10 μg peptide below 2 times of original peptide)).

For ELWHRAFC [p4665], the “Inhibition Capacity” value [4] was 2 (strong inhibition (as original epitope; OD of 10 μg peptide below 2 times of original peptide)).

With ELWHRAC [p4786] the “Inhibition Capacity” value [4] was 1 (Weaker than original epitope (OD of 10 μg peptide below 5 times of original peptide)).

For IRWDGGC [p4793], the “Inhibition Capacity” value [5] was 1 (Weaker than original epitope (OD of 10 μg peptide below 12 times of original peptide)).

For IRWDGC [p4792], the “Inhibition Capacity” value [5] was 1 (Weaker than original epitope (OD of 10 μg peptide below 12 times of original peptide)).

For EVWHRHQC [p4417], the “Inhibition Capacity” value [4] was 1 (Weaker than original epitope (OD of 10 μg peptide below 5 times of original peptide)).

With TEFRHKAC [p4753] the “Binding Capacity” value [1] was 3 (strong binding :>20000), the “Detection of Aβ/truncated/modified forms” value [2] was “+” and the “Inhibition Capacity” value [3] was 2 (strong inhibition (as original epitope; OD of 10 μg peptide below 2 times of original peptide)).

For ERWHEKHC [p4418], the “Inhibition Capacity” value [4] was 2 (strong inhibition (as original epitope; OD of 10 μg peptide below 2 times of original peptide)).

In the case of IRYDMAGC [p4399], the “Detection of Aβ/truncated/modified forms” value [6] is reported as “+”.

In the case of SPNQFRHC [p4707], the “Binding Capacity” value [1] is reported as 3 (strong binding :>20000), the “Detection of Aβ/truncated/modified forms” value [2] is reported as “+” and the “Inhibition Capacity” value [3] is reported as 1 (Weaker than original epitope (OD of 10 μg peptide below 3 times of original peptide)).

For ELWHRYPC [p4420], the “Inhibition Capacity” value [4] was 1 (Weaker than original epitope (OD of 10 μg peptide below 5 times of original peptide)).

In the case of TSVFRHC [p4383], the “Binding Capacity” value [1] is reported as 3 (strong binding :>20000), the “Detection of Aβ/truncated/modified forms” value [2] is reported as “+” and the “Inhibition Capacity” value [3] is reported as 1 (Weaker than original epitope (OD of 10 μg peptide below 3 times of original peptide)).

In the case of EVWHRHC [p4789], the “Inhibition Capacity” value [4] is reported as 1 (Weaker than original epitope (OD of 10 μg peptide below 5 times of original peptide)).

For DEHPFRHC [p4730], the “Binding Capacity” value [1] was 3 (strong binding :>20000), the “Detection of Aβ/truncated/modified forms” value [2] was “+” and the “Inhibition Capacity” value [3] was 1 (Weaker than original epitope (OD of 10 μg peptide below 3 times of original peptide)).

With VRWDVYPC [p4396] the “Detection of Aβ/truncated/modified forms” value [6] was “+”.

For ILFRHGC [p4390], the “Binding Capacity” value [1] was 3 (strong binding :>20000), the “Detection of Aβ/truncated/modified forms” value [2] was “+” and the “Inhibition Capacity” value [3] was 1 (Weaker than original epitope (OD of 10 μg peptide below 3 times of original peptide)). For the same molecule, the “average area occupied by amyloid plaques” value (Tg2576 AD mouse model) was 0.14% and the “reduction of area occupied” value (Tg2576 AD mouse model) was 60%.

EVWHRHC [p4789] showed an Inhibition Capacity (code (weaker than original epitope)) [7] of 1 and a Binding Capacity (code (weak binding, OD halfmax 1:<24000)) [8] of 1.

Work on IRWDGC [p4792] yielded an Inhibition Capacity (code (weaker than original epitope)) [9] of 1 and a Binding Capacity (code (weak binding, OD halfmax 1:<16000)) [10] of 1.

ELWHRYPC [p4420] was tested, and the Inhibition Capacity (code (weaker than original epitope)) [7] was 1 and the Binding Capacity [8] was 2.

For IRWDTPC [p4395], the Inhibition Capacity (code (weaker than original epitope)) [9] was 1 and the Binding Capacity [10] was 2.

Molecule ELWHRAFC [p4665] has an Inhibition Capacity [7] of 2 and a Binding Capacity [8] of 2.

For VRWDVYPC [p4396], the Binding Capacity (code (weak binding, OD halfmax 1:<16000)) [10] was 1.

In the case of IRWDGGC [p4793], the Inhibition Capacity (code (weaker than original epitope)) [9] is reported as 1 and the Binding Capacity [10] is reported as 2.

EVWHRLQC [p4419] was tested, and the Inhibition Capacity [7] was 2 and the Binding Capacity [8] was 3.

EVWHRHQC [p4417] was tested, and the Inhibition Capacity (code (weaker than original epitope)) [7] was 1 and the Binding Capacity [8] was 2.

ERWHEKC [p4790] showed an Inhibition Capacity [7] of 2 and a Binding Capacity (code (weak binding, OD halfmax 1:<24000)) [8] of 1.

IRYDAPLC [p4397] was tested, and the Inhibition Capacity (code (weaker than original epitope)) [9] was 1 and the Binding Capacity (code (weak binding, OD halfmax 1:<16000)) [10] was 1.

Work on IRWDQPC [p4756] yielded an Inhibition Capacity (code (weaker than original epitope)) [9] of 1 and a Binding Capacity [10] of 3.

ERWHEKHC [p4418] was tested, and the Inhibition Capacity [7] was 2 and the Binding Capacity [8] was 3.

Molecule ELWHRAC [p4786] has an Inhibition Capacity (code (weaker than original epitope)) [7] of 1 and a Binding Capacity (code (weak binding, OD halfmax 1:<24000)) [8] of 1.

With IRYDMAGC [p4399] the Binding Capacity (code (weak binding, OD halfmax 1:<16000)) [10] was 1.

For IRWDTSLC [p4728], the Inhibition Capacity ([9]; scale: code) was 2 and the Binding Capacity [10] was 3.

EVWHRGC [p4788] was tested, and the Inhibition Capacity (code (weaker than original epitope)) [7] was 1 and the Binding Capacity (code (weak binding, OD halfmax 1:<24000)) [8] was 1.
